Among the test systems are UACC-257 melanoma; NCI-H460 lung; SF-295 CNS; NCI/ADR-RES ovarian; KM12 colon; NCI-H522 lung; T-47D breast; LOX IMVI melanoma; SK-OV-3 ovarian; PC-3 prostate.
What all share (test): NCI-60 cell line screen, 48 h

From PubChem BioAssay (NCI) come the findings set out here.

Values joined by “and” are separate entries in the source; they are usually repeats but may differ in a detail not shown here. Equal entries are not always repeated.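 Test compounds were applied to cells in 96-well plates for 48 hours at 5 doses. At the GI50, growth is halved. At the TGI there is no net growth.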

With `CN(C)CCCSc1ccccc1NC1=C(Cl)C(=O)C(Nc2ccccc2SCCCN(C)C)=C(Cl)C1=O`, the GI50 in the assay on UACC-257 melanoma is 1960 nM; in the assay on NCI-H460 lung it was 4.49 µM; in the assay with SF-295 CNS, 1960 nM; in the assay on NCI/ADR-RES ovarian, 3.21 µM; in the assay on KM12 colon, 1.89 µM; with NCI-H522 lung, 1070 nM. Moreover, the GI50 in the assay with T-47D breast was 1450 nM; with LOX IMVI melanoma, 1390 nM; in the assay on SK-OV-3 ovarian, 12.5 µM; in the assay on PC-3 prostate it was 1680 nM. Also, the TGI in the assay on UACC-257 melanoma was found to be 3.45 µM; with NCI-H460 lung, 16.3 µM; with SF-295 CNS it was 3.82 µM; in the assay on NCI/ADR-RES ovarian, 18.7 µM; in the assay on KM12 colon, 4.09 µM; in the assay on NCI-H522 lung it was 2.89 µM. The TGI was determined as 3.98 µM in the assay on T-47D breast, 2880 nM in the assay with LOX IMVI melanoma, 25 µM in the assay on SK-OV-3 ovarian and 3.84 µM in the assay on PC-3 prostate.
Take `O=c1c2ccccc2c(/C=N\NC2=NCCN2)c2oc3ccccc3n12`: the GI50 in the assay with UACC-257 melanoma was > 100000 nM; in the assay with NCI-H460 lung, 17.8 µM; with SF-295 CNS, 13500 nM; with NCI/ADR-RES ovarian, > 100 µM; in the assay with KM12 colon, 16.7 µM; in the assay with NCI-H522 lung, 16200 nM. Further, the GI50 in the assay on T-47D breast was 17600 nM; in the assay on LOX IMVI melanoma, 13200 nM; in the assay on SK-OV-3 ovarian, 19.5 µM; in the assay with PC-3 prostate it was 23000 nM. Besides, the TGI in the assay with UACC-257 melanoma was > 100 µM; in the assay on NCI-H460 lung it was 39.5 µM; with SF-295 CNS it was 27.8 µM; with NCI/ADR-RES ovarian, > 100 µM; in the assay with KM12 colon it was 34.4 µM; with NCI-H522 lung, 67.6 µM. In addition, the TGI is 36 µM in the assay with T-47D breast, 31300 nM in the assay on LOX IMVI melanoma, 40.8 µM in the assay with SK-OV-3 ovarian and 45.6 µM with PC-3 prostate.
Consider `N#Cc1c(NC(=O)c2ccc(F)cc2)sc2c1CCCC2`, for which the GI50 in the assay on UACC-257 melanoma was > 25000 nM; in the assay with NCI-H460 lung, > 25 µM; in the assay on SF-295 CNS, > 25000 nM; in the assay with NCI/ADR-RES ovarian, > 25 µM; in the assay with KM12 colon, > 25 µM; in the assay on NCI-H522 lung it was > 25000 nM. Moreover, the GI50 in the assay with T-47D breast was > 25000 nM; in the assay with LOX IMVI melanoma it was > 25000 nM; with SK-OV-3 ovarian, > 25 µM; with PC-3 prostate it was > 25000 nM. Moreover, the TGI in the assay with UACC-257 melanoma, in the assay with NCI-H460 lung, in the assay with SF-295 CNS, with NCI/ADR-RES ovarian, in the assay on KM12 colon and in the assay with NCI-H522 lung was > 25 µM each time. Moreover, the TGI with T-47D breast is > 25 µM; in the assay on LOX IMVI melanoma, > 25000 nM; with SK-OV-3 ovarian, > 25 µM; in the assay with PC-3 prostate it was > 25 µM.
For the compound `COCCOC1=CC(=O)c2c(O)ccc(O)c2C1=O`, the GI50 with UACC-257 melanoma was 626 nM; in the assay with NCI-H460 lung, 2.01 µM; in the assay with SF-295 CNS, 2060 nM; with KM12 colon, 3.05 µM; in the assay with NCI-H522 lung it was 1690 nM; with LOX IMVI melanoma it was 914 nM. Besides, the GI50 was 17.9 µM in the assay on SK-OV-3 ovarian and 2670 nM with PC-3 prostate. Moreover, the TGI in the assay with UACC-257 melanoma was 0.409 µM and 2.06 µM; with NCI-H460 lung it was 3.11 µM and 4.2 µM; in the assay with SF-295 CNS, 3.09 µM and 3.93 µM; with NCI/ADR-RES ovarian, 7.41 µM and 5.63 µM; with KM12 colon it was 3.54 µM and 11.7 µM; in the assay on NCI-H522 lung, 4.44 µM and 3.37 µM. Moreover, the TGI is 4.83 µM in the assay with T-47D breast; 2340 nM and 2130 nM in the assay with LOX IMVI melanoma; 31.7 µM in the assay with SK-OV-3 ovarian; 4.77 µM and 8.28 µM in the assay on PC-3 prostate.
Turning to `Cc1ccc(C=C2C(Cl)=C(Cl)C(Cl)=C2Cl)cc1`, the GI50 with UACC-257 melanoma was 1580 nM; in the assay on NCI-H460 lung, 1.66 µM; in the assay on SF-295 CNS it was 1550 nM; in the assay with NCI/ADR-RES ovarian, 0.324 µM; in the assay on KM12 colon it was 1.15 µM; with NCI-H522 lung, 322 nM. Moreover, the GI50 with T-47D breast was 1020 nM; in the assay on LOX IMVI melanoma, 303 nM; in the assay on SK-OV-3 ovarian, 2.03 µM; in the assay with PC-3 prostate, 743 nM. Moreover, the TGI in the assay with UACC-257 melanoma was found to be 4.32 µM; in the assay with NCI-H460 lung, 3.88 µM; in the assay with SF-295 CNS, 3.93 µM; in the assay on NCI/ADR-RES ovarian, 1.52 µM; in the assay with KM12 colon it was 2.56 µM; in the assay on NCI-H522 lung, 1.01 µM. The TGI in the assay with T-47D breast was determined as 2.79 µM; in the assay on LOX IMVI melanoma it was 959 nM; in the assay on SK-OV-3 ovarian it was 4.62 µM; in the assay on PC-3 prostate, 6.3 µM.
`COC(=O)c1ccc(/C=C(\c2ccc([N+](=O)[O-])o2)S(=O)(=O)c2ccc(NC(C)=O)cc2)o1`: the TGI in the assay on UACC-257 melanoma is 4.54 µM; with NCI-H460 lung, 53.9 µM; in the assay on SF-295 CNS, 32.7 µM; in the assay with NCI/ADR-RES ovarian, 30.5 µM; in the assay on KM12 colon it was 27.8 µM; in the assay with NCI-H522 lung, 5.02 µM. For the same compound, the TGI with T-47D breast is > 100 µM; in the assay on SK-OV-3 ovarian, 38.2 µM; with PC-3 prostate, 29.8 µM.
As for `C#CC(=O)Nc1cccc2c1cc(C)n2-c1nc2c(c(NCc3ccccc3)n1)CCCC2`, the GI50 was 0.759 µM in the assay with NCI-H460 lung; 207 nM with SF-295 CNS; 0.127 µM in the assay on NCI/ADR-RES ovarian; 0.213 µM in the assay with KM12 colon; 17.4 nM in the assay with NCI-H522 lung; 697 nM with T-47D breast. Moreover, the GI50 was < 13.2 nM in the assay on LOX IMVI melanoma, 0.519 µM with SK-OV-3 ovarian and 186 nM with PC-3 prostate. Besides, the TGI in the assay with NCI-H460 lung turned out to be 2.59 µM; with SF-295 CNS, 0.51 µM; in the assay on NCI/ADR-RES ovarian, 0.645 µM; in the assay on KM12 colon, 0.546 µM; in the assay with NCI-H522 lung, 0.0372 µM; with T-47D breast, 3.33 µM. Besides, the TGI in the assay on LOX IMVI melanoma is < 18.4 nM; in the assay on SK-OV-3 ovarian, 1.09 µM; in the assay with PC-3 prostate, 0.351 µM.
As for `COC(=O)c1cc2oc(/C=C3/SC(=S)N(N)C3=O)cc2n1Cc1ccccc1`, the GI50 is 4390 nM in the assay on UACC-257 melanoma; 3.02 µM in the assay on NCI-H460 lung; 1760 nM in the assay on SF-295 CNS; 4.61 µM in the assay with NCI/ADR-RES ovarian; 6.05 µM with KM12 colon; 7810 nM in the assay on NCI-H522 lung. Besides, the GI50 in the assay on T-47D breast is 3330 nM; in the assay with LOX IMVI melanoma, 2610 nM; in the assay with SK-OV-3 ovarian, 4.25 µM; with PC-3 prostate, 9610 nM. Besides, the TGI was 21.5 µM in the assay with UACC-257 melanoma; 11.6 µM in the assay on NCI-H460 lung; 6.02 µM in the assay on SF-295 CNS; 26.9 µM in the assay with NCI/ADR-RES ovarian; > 29.7 µM with KM12 colon; 21.8 µM with NCI-H522 lung. In addition, the TGI in the assay with T-47D breast was 10.1 µM; in the assay on LOX IMVI melanoma, 16000 nM; in the assay on SK-OV-3 ovarian, 20 µM; in the assay with PC-3 prostate, > 31.9 µM.
